Data taken from patent US8143282B2, “Heterocyclic compounds” (S*BIO Pte Ltd., priority 2005, dated 2012).
pIC50: −log10 of the molar value.

Experiments:
HDAC1 enzyme = target: T1, HDAC1 enzyme (Homo sapiens, UniProt Q13547); assay: In vitro HDAC assay for determination of IC50 values (BIOMOL fluorescent-based HDAC activity assay); format: biochemical
T1 construct: Amplification of human HDAC1 coding region from this cDNA library was cloned separately into the baculovirus expression pDEST20 vector; made in house; host or cells: SF9 insect cells, pDEST20-HDAC1 baculovirus
T1 sequence (Q13547 whole entry): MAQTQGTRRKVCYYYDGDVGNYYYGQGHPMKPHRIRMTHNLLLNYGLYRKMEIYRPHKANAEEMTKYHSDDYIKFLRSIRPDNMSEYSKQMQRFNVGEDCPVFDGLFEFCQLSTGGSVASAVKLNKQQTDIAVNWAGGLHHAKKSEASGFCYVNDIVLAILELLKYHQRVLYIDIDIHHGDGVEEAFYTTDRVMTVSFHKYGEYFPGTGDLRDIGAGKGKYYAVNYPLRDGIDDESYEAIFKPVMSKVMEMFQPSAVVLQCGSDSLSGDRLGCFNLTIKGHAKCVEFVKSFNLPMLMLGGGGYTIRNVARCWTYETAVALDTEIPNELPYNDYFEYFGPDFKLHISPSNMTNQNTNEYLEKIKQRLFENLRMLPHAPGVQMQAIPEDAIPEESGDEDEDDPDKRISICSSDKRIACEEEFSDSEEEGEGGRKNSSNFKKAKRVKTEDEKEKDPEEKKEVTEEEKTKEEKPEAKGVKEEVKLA
Outline: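 Recombinant GST-HDAC1, cloned from SW620 cDNA and expressed in Sf9 cells, tested in a fluorogenic Fluor de Lys deacetylase assay. Developer was added for 10 min and fluorescence read at 360/460 nm. IC50 came from concentration series.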

Colo205 cells = assay: Cell-based proliferation assay for GI50 (CyQUANT), Colo205; settings: Homo sapiens, COLO 205, 96 h treatment, read-out: Cellular or Growth Inhibition Activity in Colo205 cells, GI50
Outline: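 Cells were seeded at 1000 (PC3), 5000 (Colo205), 6000 (HCT116) or 4000 (HEP3B) per well and left 24 h at 37° C. Compound treatment lasted 96 h. Growth was read by CyQUANT, and GI50 (50% growth inhibition) came from dose-response curves.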

[1] = Measurement of microsomal stability; format: in vitro ADME; settings: pooled human liver microsomes, pH 7.4; human liver microsome, 5 μM test compound, 1.0 mg/ml microsomal protein
Method: Metabolic stability measurements in the in vitro using liver microsomes aids in the prediction of the in vivo hepatic clearance and the compound stability towards phase I biotransformation reactions mediated by P450 isozymes.
Pooled human liver microsome (HLM was purchased from BD Gentest (BD BioSciences). The incubations consisted of test compound (5 μM) or control compound (Verapamil), NADPH-generating system solution A (25 mM NADP^+, 66 mM glucose-6-phosphate, 66 mM MgCl2 in H2O), NADPH-generating system solution B (40 U/ml glucose-6-phosphate dehydrogenase in 5 mM sodium citrate) and 1.0 mg/ml microsomal protein, respectively, in 100 mM potassium phosphate buffer (pH 7.4). Samples were incubated for 0, 5, 15, 30, 45, 60 min. Reaction was terminated with ice-cold 80% acetonitrile and 20% DMSO. Samples were subsequently centrifuged at 4° C. for 15 min at 2,000 rpm. 100 μL of the supernatant was transferred to the LC-MS Plate for analysis. Before quantitative analysis, the compound was tuned in LC/MS machine to get the optimized MS condition. Liquid chromatography was performed on a Luna C18 column (Phenomenex U.S.A, Torrance, Calif.) (2×50 mm, 5 μM). % of the compound remaining (by area) at each time point is calculated with respect to time 0 min. Plot % remaining against time (min) to obtain the curve and use the Prism software to obtain the t1/2.

| pIC50 (HDAC1 enzyme) | GI50 (Colo205 cells) [nM] | half-life at 5 μM [1] [min] | Structure (SMILES) |
| --- | --- | --- | --- |
| 7.09 | 660 | > 30 | CC(C)Cc1nc2cc(/C=C/C(=O)NO)ccc2n1CCNC(C)C [Compound 35, N-Hydroxy-3-[2-isobutyl-1-(2-isopropylamino-ethyl)-1H-benzoimidazol-5-yl]-acrylamide] |
| 7.15 | 480 | > 30 | C=CCCc1nc2cc(/C=C/C(=O)NO)ccc2n1CCN(CC)CC [Compound 11, 3-[2-But-3-enyl-1-(2-diethylamino-ethyl)-1H-benzoimidazol-5-yl]-N-hydroxy-acrylamide] |
| 6.42 | 2120 | > 30 | CC(C)c1nc2cc(/C=C/C(=O)NO)ccc2n1CC(C)(C)CN(C)C [Compound 2, 3-[1-(3-Dimethylamino-2,2-dimethyl-propyl)-2-isopropyl-1H-benzoimidazol-5-yl]-N-hydroxy-acrylamide] |
| 7.33 | 550 | > 30 | CCCCCN(CC)CCn1cnc2cc(/C=C/C(=O)NO)ccc21 [Compound 88, 3-{1-[2-(Ethyl-pentyl-amino)-ethyl]-1H-benzoimidazol-5-yl}-N-hydroxy-acrylamide] |
| 7.19 | 510 | > 30 | C#CCCc1nc2cc(/C=C/C(=O)NO)ccc2n1CCN(CC)CC [Compound 12, 3-[2-But-3-ynyl-1-(2-diethylamino-ethyl)-1H-benzoimidazol-5-yl]-N-hydroxy-acrylamide] |
| 7.11 | 630 | > 30 | CCN(CC)CCn1c(CCC(F)(F)F)nc2cc(/C=C/C(=O)NO)ccc21 [Compound 14, 3-[1-(2-Diethylamino-ethyl)-2-(3,3,3-trifluoro-propyl)-1H-benzoimidazol-5-yl]-N-hydroxy-acrylamide] |
| 7.37 | 440 | > 30 | CCCCN(CCn1cnc2cc(/C=C/C(=O)NO)ccc21)C(C)C [Compound 108, 3-{1-[2-(Butyl-isopropyl-amino)-ethyl]-1H-benzoimidazol-5-yl}-N-hydroxy-acrylamide] |
| 6.32 | 1880 |  | CCCCCCN(CC)CCn1c(C(F)(F)F)nc2cc(/C=C/C(=O)NO)ccc21 [Compound 118, 3-{1-[2-(Ethyl-hexyl-amino)-ethyl]-2-trifluoromethyl-1H-benzoimidazol-5-yl}-N-hydroxy-acrylamide] |
| 7.80 | 610 |  | CCCC(C)CN(CCn1cnc2cc(/C=C/C(=O)NO)ccc21)C(C)C (stereo not drawn) [Compound 113, N-Hydroxy-3-(1-{2-[isopropyl-(2-methyl-pentyl)-amino]-ethyl}-1H-benzoimidazol-5-yl)-acrylamide] |
| 6.38 | 5500 |  | CN(C)CC(C)(C)Cn1c(CCC(F)(F)F)nc2cc(/C=C/C(=O)NO)ccc21 [Compound 13, 3-[1-(3-Dimethylamino-2,2-dimethyl-propyl)-2-(3,3,3-trifluoro-propyl)-1H-benzoimidazol-5-yl]-N-hydroxy-acrylamide] |
| 6.29 | 8100 |  | CCCCCCc1nc2cc(/C=C/C(=O)NO)ccc2n1C1CCCN(CCO)C1 (stereo not drawn) [Compound 90, 3-{2-Hexyl-1-[1-(2-hydroxy-ethyl)-piperidin-3-yl]-1H-benzoimidazol-5-yl}-N-hydroxy-acrylamide] |
| 7.20 | 720 |  | CC(C)N(CCCC(F)(F)F)CCn1cnc2cc(/C=C/C(=O)NO)ccc21 [Compound 114, (E)-N-hydroxy-3-(1-(2-(isopropyl(4,4,4-trifluorobutyl)amino)ethyl)-1H-benzo[d]imidazol-5-yl)acrylamide] |
| 7.19 | 530 | > 30 | CC(C)NCCn1c(CC(C)(C)C)nc2cc(/C=C/C(=O)NO)ccc21 [Compound 19] |
| 7.28 | 570 |  | CCCCN(CC)CCn1cnc2cc(/C=C/C(=O)NO)ccc21 [Compound 95, 3-{1-[2-(Butyl-ethyl-amino)-ethyl]-1H-benzoimidazol-5-yl}-N-hydroxy-acrylamide] |
| 7.54 | 900 |  | CCCCCCCC(Cc1nc2cc(/C=C/C(=O)NO)ccc2n1CCN)OC (stereo not drawn) [Compound 56, 3-[1-(2-Amino-ethyl)-2-(2-methoxy-nonyl)-1H-benzoimidazol-5-yl]-N-hydroxy-acrylamide] |
| 6.59 | 2660 |  | CC(C)N(CCn1c(CC(C)(C)C)nc2cc(/C=C/C(=O)NO)ccc21)C(C)C [Compound 20, 3-[1-(2-Diisopropylamino-ethyl)-2-(2,2-dimethyl-propyl)-1H-benzoimidazol-5-yl]-N-hydroxy-acrylamide] |
| 6.89 | 1920 |  | CC/C=C\CCc1nc2cc(/C=C/C(=O)NO)ccc2n1CCCNC(C)C [Compound 29, 3-[2-Hex-3-enyl-1-(3-isopropylamino-propyl)-1H-benzoimidazol-5-yl]-N-hydroxy-acrylamide] |
| 6.92 | 1890 |  | CC(C)(C)CCN1CCC(n2cnc3cc(/C=C/C(=O)NO)ccc32)C1 (stereo not drawn) [Compound 99, 3-{1-[1-(3,3-Dimethyl-butyl)-pyrrolidin-3-yl]-1H-benzoimidazol-5-yl}-N-hydroxy-acrylamide] |
| 7.10 | 2440 |  | CCN(CC)CCn1c(CCCCC#N)nc2cc(/C=C/C(=O)NO)ccc21 [Compound 101, 3-[2-(4-Cyano-butyl)-1-(2-diethylamino-ethyl)-1H-benzoimidazol-5-yl]-N-hydroxy-acrylamide] |
| 7.04 | 1090 |  | CCNCCn1c(CC(C)C)nc2cc(/C=C/C(=O)NO)ccc21 [Compound 37, 3-[1-(2-Ethylamino-ethyl)-2-isobutyl-1H-benzoimidazol-5-yl]-N-hydroxy-acrylamide] |
| 7.10 | 490 |  | CC(C)CCN(CCn1cnc2cc(/C=C/C(=O)NO)ccc21)C(C)C [Compound 121, N-Hydroxy-3-(1-{2-[isopropyl-(3-methyl-butyl)-amino]-ethyl}-1H-benzoimidazol-5-yl)-acrylamide] |
| 7.59 | 670 |  | CCCCCCCCc1nc2cc(/C=C/C(=O)NO)ccc2n1CCN [Compound 77, 3-[1-(2-Amino-ethyl)-2-octyl-1H-benzoimidazol-5-yl]-N-hydroxy-acrylamide] |
| 7.74 | 290 |  | CCCCCCCCc1nc2cc(/C=C/C(=O)NO)ccc2n1CCNC [Compound 76, N-Hydroxy-3-[1-(2-methylamino-ethyl)-2-octyl-1H-benzoimidazol-5-yl]-acrylamide] |
| 6.74 | 770 |  | CCCCN(CCCC)CCn1c(CCC)nc2cc(/C=C/C(=O)NO)ccc21 [Compound 119, (E)-3-(1-(2-(dibutylamino)ethyl)-2-propyl-1H-benzo[d]imidazol-5-yl)-N-hydroxyacrylamide] |
| 7.10 | 700 |  | O=C(/C=C/c1ccc2c(c1)ncn2C1CCCN(CCc2ccccc2)C1)NO (stereo not drawn) [Compound 96, (E)-N-hydroxy-3-(1-(1-phenethylpiperidin-3-yl)-1H-benzo[d]imidazol-5-yl)acrylamide] |
| 7.68 | 180 |  | CC/C=C\CCc1nc2cc(/C=C/C(=O)NO)ccc2n1CCNC(C)C [Compound 28, 3-[2-Hex-3-enyl-1-(2-isopropylamino-ethyl)-1H-benzoimidazol-5-yl]-N-hydroxy-acrylamide] |

| Structure (SMILES) | pIC50 (HDAC1 enzyme) | GI50 (Colo205 cells) [nM] | half-life at 5 μM [1] [min] |
| --- | --- | --- | --- |
| CCCCCCc1nc2cc(/C=C/C(=O)NO)ccc2n1C1CCNC1 (stereo not drawn) [Compound 80, 3-(2-Hexyl-1-pyrrolidin-3-yl-1H-benzoimidazol-5-yl)-N-hydroxy-acrylamide] | 7.40 | 1370 | > 30 |
| CCCCc1nc2cc(/C=C/C(=O)NO)ccc2n1CCN(C)C(C)C [Compound 78, 3-{2-Butyl-1-[2-(isopropyl-methyl-amino)-ethyl]-1H-benzoimidazol-5-yl}-N-hydroxy-acrylamide] | 7.36 | 540 | > 30 |
